In ChEMBL document CHEMBL1201862, “PubChem BioAssay data set” (2004):
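96-well plates; 48 h exposure; 5 concentrations. Endpoints by linear interpolation between flanking doses. Not reached: highest tested concentration assigned. GI50 is the concentration that inhibits growth by half.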 Activity calls are given as the source filed them. No stated cut-off is given here; in the data, active = GI50 up to about 1.1 µM and inactive = higher.

Key:
Assay in all cases: NCI anticancer screen, dose series, 48 h
[1] = system: EKVX
[2] = system: HL-60
[3] = system: SNB-75
[4] = system: OVCAR-8
[5] = system: ACHN
[6] = system: OVCAR-5
[7] = system: 786-0
[8] = system: A498
[9] = system: A549
[10] = system: U-251
[11] = system: UACC-62
[12] = system: RPMI-8226
[13] = system: HCC 2998
[14] = system: NCI-H226
[15] = system: NCI-H23
[16] = system: HOP-18
[17] = system: SR
[18] = system: COLO 205
[19] = system: MOLT-4
[20] = system: RXF 631
[21] = system: M19-MEL
[22] = system: SF-295
[23] = system: SW-620
[24] = system: DMS-273
[25] = system: SNB-19
[26] = system: LOX IMVI
[27] = system: XF498
[28] = system: SF-268
[29] = system: TK-10
[30] = system: LXFL 529
[31] = system: CCRF-CEM
[32] = system: DLD-1
[33] = system: HOP-92
[34] = system: HOP-62
[35] = system: SF-539
[36] = system: HCT-15
[37] = system: NCI-H522
[38] = system: RXF 393
[39] = system: IGROV-1
[40] = system: SNB-78
[41] = system: HCT-116
[42] = system: CAKI-1
[43] = system: M14
[44] = system: SK-OV-3
[45] = system: KM12
[46] = system: K562
[47] = system: DMS-114
[48] = system: SK-MEL-2
[49] = system: OVCAR-3
[50] = system: KM-20L2
[51] = system: HT-29
[52] = system: UACC-257
[53] = system: UO-31
[54] = system: SN12C
[55] = system: NCI-H460
[56] = system: SK-MEL-5
[57] = system: OVCAR-4
[58] = system: Malme-3M
[59] = system: SK-MEL-28

With `OCC(O)COc1c(Cl)cc(Cl)cc1Cl` (stereo not drawn) the GI50 [1] was > 100 µM (inactive), the GI50 [2] was > 100 µM (inactive) and the GI50 [3] was > 100 µM (inactive). The GI50 [4] was > 100 µM (inactive), the GI50 [5] was > 100 µM (inactive) and the GI50 [6] was > 100 µM (inactive). For the same molecule, the GI50 [7] was > 47.6 µM (inactive), the GI50 [8] was > 100 µM (inactive) and the GI50 [9] was > 100 µM (inactive). The GI50 [10] was > 100 µM (inactive), the GI50 [11] was > 100 µM (inactive) and the GI50 [12] was > 44.9 µM (inactive). The GI50 [13] was > 100 µM (inactive), the GI50 [14] was > 100 µM (inactive) and the GI50 [15] was > 57.4 µM (inactive). The GI50 [16] was > 100 µM (inactive), the GI50 [17] was 61.7 µM (inactive) and the GI50 [18] was > 68.7 µM (inactive). For the same molecule, the GI50 [19] was > 31.6 µM (inactive), the GI50 [20] was > 100 µM (inactive) and the GI50 [21] was > 100 µM (inactive). The GI50 [22] was > 100 µM (inactive), the GI50 [23] was > 34 µM (inactive) and the GI50 [24] was > 100 µM (inactive). The GI50 [25] was > 100 µM (inactive), the GI50 [26] was > 41.3 µM (inactive) and the GI50 [27] was > 100 µM (inactive). For the same molecule, the GI50 [28] was > 100 µM (inactive), the GI50 [29] was > 100 µM (inactive) and the GI50 [30] was > 90.8 µM (inactive). The GI50 [31] was > 41.8 µM (inactive), the GI50 [32] was > 59.7 µM (inactive) and the GI50 [33] was > 100 µM (inactive). The GI50 [34] was > 100 µM (inactive), the GI50 [35] was > 100 µM (inactive) and the GI50 [36] was greater than 100 µM. The GI50 [37] was > 100 µM (inactive), the GI50 [38] was > 100 µM (inactive) and the GI50 [39] was > 100 µM (inactive). The GI50 [40] was > 100 µM (inactive), the GI50 [41] was > 74.3 µM (inactive) and the GI50 [42] was > 100 µM (inactive). For the same molecule, the GI50 [43] was > 100 µM (inactive), the GI50 [44] was > 100 µM (inactive) and the GI50 [45] was > 100 µM (inactive). The GI50 [46] was > 46.6 µM (inactive), the GI50 [47] was > 100 µM (inactive) and the GI50 [48] was > 100 µM (inactive). For the same molecule, the GI50 [49] was > 100 µM (inactive), the GI50 [50] was > 100 µM (inactive) and the GI50 [51] was > 100 µM (inactive). The GI50 [52] was > 100 µM (inactive), the GI50 [53] was > 100 µM (inactive) and the GI50 [54] was > 100 µM (inactive). For the same molecule, the GI50 [55] was > 100 µM (inactive), the GI50 [56] was > 100 µM (inactive) and the GI50 [57] was > 100 µM (inactive). For the same molecule, the GI50 [58] was > 100 µM (inactive) and the GI50 [59] was > 100 µM (inactive).
For `CC1(C)COC(c2ccc(C(F)(F)F)cc2C(O)c2ccc3ccccc3c2)=N1` (stereo not drawn), the GI50 [1] was > 10 µM (inactive), the GI50 [2] was 78.3 µM (inactive) and the GI50 [3] was 15.8 µM (inactive). For the same molecule, the GI50 [4] was > 10 µM (inactive), the GI50 [5] was > 10 µM (inactive) and the GI50 [6] was > 10 µM (inactive). The GI50 [7] was > 10 µM (inactive), the GI50 [8] was > 10 µM (inactive) and the GI50 [9] was 99.5 µM (inactive). For the same molecule, the GI50 [10] was > 10 µM (inactive), the GI50 [11] was > 10 µM (inactive) and the GI50 [12] was > 100 µM (inactive). For the same molecule, the GI50 [13] was > 10 µM (inactive), the GI50 [14] was 51.3 µM (inactive) and the GI50 [15] was 28.9 µM (inactive). The GI50 [16] was > 10 µM (inactive), the GI50 [17] was > 10 µM (inactive) and the GI50 [18] was > 10 µM (inactive). The GI50 [19] was > 10 µM (inactive), the GI50 [20] was > 100 µM (inactive) and the GI50 [21] was > 10 µM (inactive). For the same molecule, the GI50 [22] was 20.7 µM (inactive), the GI50 [23] was > 10 µM (inactive) and the GI50 [24] was > 10 µM (inactive). The GI50 [25] was 57.8 µM (inactive), the GI50 [26] was > 10 µM (inactive) and the GI50 [27] was 64.3 µM (inactive). The GI50 [28] was 82 µM (inactive), the GI50 [29] was > 10 µM (inactive) and the GI50 [30] was > 10 µM (inactive). For the same molecule, the GI50 [31] was > 10 µM (inactive), the GI50 [32] was > 10 µM (inactive) and the GI50 [33] was 41.4 µM (inactive). For the same molecule, the GI50 [34] was > 10 µM (inactive), the GI50 [35] was 64.4 µM (inactive) and the GI50 [36] was greater than 10 µM. For the same molecule, the GI50 [37] was > 10 µM (inactive), the GI50 [38] was 16 µM (inactive) and the GI50 [39] was > 10 µM (inactive). For the same molecule, the GI50 [40] was 89.3 µM (inactive), the GI50 [41] was > 10 µM (inactive) and the GI50 [42] was 94.6 µM (inactive). For the same molecule, the GI50 [43] was > 10 µM (inactive), the GI50 [44] was > 10 µM (inactive) and the GI50 [45] was > 10 µM (inactive). The GI50 [46] was > 10 µM (inactive), the GI50 [47] was > 10 µM (inactive) and the GI50 [48] was > 10 µM (inactive). The GI50 [49] was > 10 µM (inactive), the GI50 [50] was > 10 µM (inactive) and the GI50 [51] was > 10 µM (inactive). The GI50 [52] was > 10 µM (inactive), the GI50 [53] was > 10 µM (inactive) and the GI50 [54] was > 10 µM (inactive). The GI50 [55] was > 10 µM (inactive), the GI50 [56] was > 10 µM (inactive) and the GI50 [57] was > 10 µM (inactive). The GI50 [58] was > 10 µM (inactive) and the GI50 [59] was > 10 µM (inactive).
